We go through 8 compounds from patent US6242601A, “Heterocyclic sulfamides” (Hoffman-La Roche Inc., priority 1999, dated 2001).

One may read the IC50 as the concentration at which inhibition is half-maximal.

One data set concerns the target T1, isolated rat aorta rings (Rattus norvegicus, UniProt P26684).
T1 construct: Rings with a length of 5 mm were cut out from the thorax aorta of adult Wistar-Kyoto rats; from tissue; host or cells: thoracic aorta of adult Wistar-Kyoto rats, endothelium removed
T1 sequence (P26684 21-426): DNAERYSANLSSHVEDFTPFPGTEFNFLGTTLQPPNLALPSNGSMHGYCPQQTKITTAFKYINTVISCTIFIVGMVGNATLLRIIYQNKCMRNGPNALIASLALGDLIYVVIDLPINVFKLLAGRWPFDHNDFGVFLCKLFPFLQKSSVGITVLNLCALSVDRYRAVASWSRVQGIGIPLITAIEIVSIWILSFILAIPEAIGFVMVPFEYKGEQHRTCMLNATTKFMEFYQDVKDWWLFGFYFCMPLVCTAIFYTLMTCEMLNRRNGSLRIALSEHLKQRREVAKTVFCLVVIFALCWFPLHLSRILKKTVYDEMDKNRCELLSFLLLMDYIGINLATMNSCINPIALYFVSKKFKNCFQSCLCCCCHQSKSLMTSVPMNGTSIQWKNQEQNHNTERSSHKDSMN
The data set is described as follows: Inhibition of endothelin-induced contractions in isolated rat aorta rings. Details: species or system adult Wistar-Kyoto rats. As to conditions: rat aorta rings without endothelium, 37° C.; endothelin-1 cumulative; from dose ratio; read-out: pA2 (converted). The protocol:
Rings with a length of 5 mm were cut out from the thorax aorta of adult Wistar-Kyoto rats. The endothelium was removed by lightly rubbing the internal surface. Each ring was immersed at 37° C. in 10 ml of Krebs-Henseleit solution in an isolated bath while gassing with 95% O2 and 5% CO2. The isometric stretching of the rings was measured. The rings were stretched to a pre-tension of 3 g.
The corresponding pA2 value, which is a measure of the activity of the test compound, was calculated using a computer programme according to the following equation from the "dose ratio" DR for each individual dosage-activity curve.
pA2 =log(DR-1)-log(antagonist-concentration)

The nature of data set [1]: Pharmacokinetics of the endothelin receptor antagonists after oral gavage in rats. Type of data set: in vivo. As to conditions: rat, plasma, 5 mg/kg in DMSO, Wistar rats, bioassay; for AUC: read-out: Area under the plasma concentration time curve; for Cmax: read-out: Peak concentration in rat plasma. The protocol: IV. […] The test compounds were dissolved in DMSO at a concentration of 5 mg/mL and administered orally by gavage at a dose of 1 mL/kg body weight corresponding to 5 mg/kg body weight. Two rats were administered per test compound. Blood samples were collected from the retro-orbital sinus at 1 and 5 h post dose in one rat, and at 3 and 7 h post dose in the other rat. In addition a terminal 24 h blood sample was collected from both rats by heart puncture. Blood was collected on EDTA-NaF. Plasma was derived by centrifugation at 2000 g at +4° C. for 15 min. Plasma samples were assayed for active drug related material with a bioassay, based on the binding competition of tested compounds and ^125 I ET-1 on recombinant ETA receptors. Quantitation of plasma samples was by comparison to a calibration curve build up from control rat plasma spiked with known concentrations of the test compounds.

For data set [2], the target named is T2, recombinant human ETA receptors (Homo sapiens, UniProt P25101).
T2 sequence (P25101 21-427): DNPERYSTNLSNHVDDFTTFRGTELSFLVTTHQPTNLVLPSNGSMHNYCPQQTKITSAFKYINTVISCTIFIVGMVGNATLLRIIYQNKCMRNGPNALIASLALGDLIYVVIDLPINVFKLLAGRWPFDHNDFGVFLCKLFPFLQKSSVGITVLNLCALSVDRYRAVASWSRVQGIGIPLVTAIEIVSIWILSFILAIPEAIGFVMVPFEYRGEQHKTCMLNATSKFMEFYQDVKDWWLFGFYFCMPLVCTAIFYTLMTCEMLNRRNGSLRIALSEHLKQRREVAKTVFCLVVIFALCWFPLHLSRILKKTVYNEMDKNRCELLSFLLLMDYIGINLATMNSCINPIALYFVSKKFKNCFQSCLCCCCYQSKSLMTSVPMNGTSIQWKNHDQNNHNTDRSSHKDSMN
The data set is described as follows: Inhibition of endothelin binding on recombinant human ETA receptors expressed in CHO cells ([125I]ET-1, whole attached cells). The note with it: 35 pM [125I]ET-1, 2 h, 22° C. Also on record: expressed in transfected cells; host or cells: CHO cells. The protocol:
II. […] Cell culture. CHO cells, expressing recombinant human ETA receptor are grown in Minimal Essential Alpha Medium (Gibco Laboratories, Paisley, Scotland) supplemented with 0.1 μM methotrexate, 5% dialyzed fetal calf serum, 100 U/ml of penicillin and 100 μg/ml of streptomycin. Binding assays with whole attached cells are performed in 500 μl Dulbecco's Eagle medium (DMEM) containing 2 mg/ml bovine serum albumin and 25 mM Hepes. After incubation (2 h, 22° C.) in the presence of 35 pM [^125 I]ET-1 and increasing concentrations of various antagonists, the cells are extensively washed and finally solubilized in 1% (w/v) SDS, 0.5 M NaOH and 100 mM EDTA. Each assay is performed three times in triplicates and non specific binding is assessed in the presence of 100 nM unlabelled ET-1. Specific binding is defined as the difference between total binding and non specific binding. IC50 values are determined after logit/log transformation of the binding data.

A value given as a limit tells only on which side of the number the result lay.

For `COc1ccccc1Oc1c(NS(=O)(=O)c2ccc(C(C)C)cn2)nc(-c2ccnc(C(N)=O)c2)nc1OC` [Example 42, 4-[4-(5-isopropyl-pyridine-2-sulfonylamino)-6-methoxy-5-(2-methoxy-phenoxy)-pyrimidin-2-yl]-pyridine-2-carboxylic acid amide], the Kb at isolated rat aorta rings is no more than 6.31 nM. Also, in data set [1], the AUC is no less than 10000 ng·h/mL and the Cmax was no less than 1500 ng/mL.

In the case of `CCOC(=O)c1cc(-c2nc(NS(=O)(=O)c3ccc(C)cn3)c(Oc3ccccc3OC)c(OC)n2)ccn1` [Example 23, 4-[4-methoxy-5-(2-methoxy-phenoxy)-6-(5-methyl-pyridine-2-sulfonylamino)-pyrimidin-2-yl]-pyridine-2-carboxylic acid ethyl ester], the Kb at isolated rat aorta rings was no more than 6.31 nM. Besides, the IC50 in data set [2] is no more than 10 nM.

As to `COc1ccccc1Oc1c(NS(=O)(=O)c2ccc(C(C)C)cn2)nc(-c2ccnc(CNC(C)=O)c2)nc1OC` [Example 52, N-{4-[4-(5-isopropyl-pyridine-2-sulfonylamino)-6-methoxy-5-(2-methoxy-phenoxy)-pyrimidin-2-yl]-pyridin-2-ylmethyl}-acetamide], at isolated rat aorta rings, the Kb is no more than 6.31 nM. In addition, in data set [1], the AUC is no less than 10000 ng·h/mL and the Cmax was no less than 1500 ng/mL.

Take `COc1ccccc1Oc1c(NS(=O)(=O)c2ccc(C(C)C)cn2)nc(-c2ccnc(C(=N)NO)c2)nc1OC` [Example 55, N-hydroxy-4-[4-(5-isopropyl-pyridine-2-sulfonylamino)-6-methoxy-5-(2-methoxy-phenoxy)-pyrimidin-2-yl]-pyridine-2-carboxamidine]: the Kb on isolated rat aorta rings was no more than 6.31 nM. In addition, the IC50 in data set [2] is no more than 10 nM.

Regarding `COc1ccccc1Oc1c(NS(=O)(=O)c2ccc(C)cn2)nc(-c2cccc(OCCO)c2)nc1OC` [Example 7, 5-methyl-pyridine-2-sulfonic acid [2-[3-(2-hydroxy-ethoxy)-phenyl]-6-methoxy-5-(2-methoxy-phenoxy)-pyrimidin-4-yl]-amide], at isolated rat aorta rings, the Kb is no more than 6.31 nM. Also, in data set [1], the AUC is no less than 10000 ng·h/mL and the Cmax is no less than 1500 ng/mL. For the same compound, the IC50 in data set [2] was no more than 10 nM.

With `COc1ccccc1Oc1c(NS(=O)(=O)c2ccc(C)cn2)nc(-c2ccnc(-c3noc(C)n3)c2)nc1OC` [Example 35, 5-methyl-pyridine-2-sulfonic acid {6-methoxy-5-(2-methoxy-phenoxy)-2-[2-(5-methyl-[1,2,4]oxadiazol-3-yl)-pyridin-4-yl]-pyrimidin-4-yl}-amide], at isolated rat aorta rings, the Kb is no more than 6.31 nM. In data set [1], the AUC is no less than 10000 ng·h/mL and the Cmax was no less than 1500 ng/mL.

With `COc1ccccc1Oc1c(NS(=O)(=O)c2ccc(C)cn2)nc(-c2cccc(O)c2)nc1OC` [Example 1, 5-methyl-pyridine-2-sulfonic acid [2-(3-hydroxy-phenyl)-6-methoxy-5-(2-methoxy-phenoxy)-pyrimidin-4-yl]-amide], the Kb on isolated rat aorta rings is no more than 6.31 nM. Further, the IC50 in data set [2] was no more than 10 nM.

In the case of `COc1ccccc1Oc1c(NS(=O)(=O)c2ccc(C)cn2)nc(-c2ccnc(C(=O)O)c2)nc1OC` [Example 21, 4-[4-methoxy-5-(2-methoxy-phenoxy)-6-(5-methyl-pyridine-2-sulfonylamino)-pyrimidin-2-yl]-pyridine-2-carboxylic acid], the Kb on isolated rat aorta rings was no more than 6.31 nM. Besides, the IC50 in data set [2] was no more than 10 nM.
